Reference: US20200237670A1, “DYE-STABILIZED NANOPARTICLES AND METHODS OF THEIR MANUFACTURE AND THERAPEUTIC USE” (Memorial Sloan Kettering Cancer Center, priority 2015, published 2020)

What was measured:
[1] = tested on: MYC-driven autochthonous murine hepatic tumor; assay: MYC/β-catenin driven liver tumor model: targeting and biodistribution; type: in vivo, FVB mice; conditions: near-IR fluorescence of livers 24 h after i.v. injection, sodium salt
Description: Sorafenib-containing nanoparticles were tested in vivo for imaging and treatment of hepatocellular carcinoma in an orthotopic model. FVB mice were transfected by hydrodynamic injection on day 0 with plasmids to C-Myc and beta-catenin to inoculate liver tumors. FIG. 5A depicts mice bearing liver tumors and healthy mice were injected with IR783-SFB (for example, at 20 mg/kg) at day 21 after inoculation. After 24 hours the livers were extracted and imaged using an IVIS Preclinical In Vivo Imaging System (Perkin Elmer) in fluorescence imaging mode. […] The tumors were also imaged by their GFP expression (right panel). […] The GFP expression in the tumors was also imaged (right panel).
Next, the biodistribution of INPs in a MYC-driven murine hepatic tumor model was evaluated. To generate autochthonous liver tumors, Sleeping Beauty transposon vectors encoding c-Myc and mutant β-catenin (coupled to GFP) were hydrodynamically delivered into immunocompetent FVB mice along with a vector encoding Sleeping Beauty transposase as described herein.
Hydrodynamic transfection was performed. […] Tumors were evaluated using fluorescence imaging (IVIS imaging system, Xenogen Corp., Hopkinton, Mass.) and immunohistochemistry (H&E). Tumor volume was measured using a caliper.

[2] = tested on: endothelial cells; 3T3-GFP / SB2 co-culture; assay: Photodynamic therapy in cell culture (NIR irradiation); type: cell-based; conditions: 30 min incubation, 1 min xenon lamp, imaged after 24 h
Description: The IR783-SFB nanoparticles were tested for the application of photodynamic therapy. The […] properties of the dyes may provide an added therapeutic benefit of the targeted nanoparticles. Endothelial and cancer cells were incubated with the nanoparticles for 30 min and then washed and exposed to NIR light from a Xenon lamp for 1 min. […] FIG. 8A depicts endothelial cells that were incubated for 30 min with NP and irradiated for 1 min with a xenon lamp (Xcite) using an ICG filter set (Chroma). […] After 24 h, the morphology of the irradiated area was altered and cells detached after washing (upper right).

[3] = tested on: BAEC, bEnd3, SB2, 3T3, BMDM and RAW264 cells; assay: In vitro uptake of IR783-SFB nanoparticles (fluorescence microscopy); type: cell-based; conditions: 2 h, 30 μg/ml particles or equivalent free dye
Description: Bone marrow derived macrophages (BMDM), RAW264 macrophages, and 3T3 fibroblasts did take up the nanoparticles efficiently. […] FIG. 4B depicts quantitative analysis of fluorescence intensity in the cell lines was conducted using ImageJ v1.40 (NIH, USA). The mean fluorescence intensities are expressed in arbitrary units per square micron. The increased uptake by endothelial cells and cancer cells as opposed to macrophages and fibroblasts is about 4 fold. FIG. 4C depicts confirmation of the differential uptake between cell lines, 3T3 fibroblasts (GFP) were co-cultured with SB2 liver cancer cells (RFP) to confluence and incubated with nanoparticles for 30 min. The cell morphology of the co-culture can be seen in bright light (upper left, DIC) and fluorescence channel (upper right).
The uptake of the sorafenib-IR783 nanoparticles (IR783-SFB) was tested in 6 cell types: endothelial cells (BAEC and bEnd3 cell line), liver HCC cells (SB2 cells, derived from the in vivo model), fibroblasts (3T3), and macrophages (BMDM and RAW264). The cells were incubated for 2 hours with 30 μg/ml and as a control with an equivalent amount of free IR783. The cells were washed and stained with Cell Mask (Life Sciences) for membrane staining and DAPI for nuclear staining. The cells were imaged with a florescence microscope equipped with an Indocyanine Green filter set, as depicted in FIGS. 4A-4B.

[4] = tested on: MYC-driven autochthonous murine hepatic tumor; assay: MYC/β-catenin driven liver tumor model: anti-tumor efficacy; type: in vivo, FVB mice; conditions: 30 mg/kg sorafenib p.o. or as INP i.v., weekly for three weeks; endpoint about day 60
Description: For example, here 20 FVB mice were administered a hydrodynamic injection on day 0 with plasmids to C-Myc and beta-catenin to initiate liver tumors. The efficacy of IR783-SFB was compared to oral SFB. Treatments started at day 21 after inoculation and were administrated once weekly for 3 weeks.
To test the therapeutic potential of the INPs in vivo, the anti-tumor efficacy of equivalent drug doses in the liver cancer mouse model described above were either delivered intravenously via INPs or the orally administered free drug. Sorafenib or sorafenib INPs were injected weekly over the course of three weeks. […] Furthermore, quantitative measures of liver weight, tumor volume, and GFP emission confirmed virtually complete tumor eradication in INP-treated livers (FIGS. 12D-12F).
Hydrodynamic transfection was performed. Specifically, 10 μg pT3-EF1a-c-myc, 10 μg pT3-EF1a-β-CateninT41A-IRES-GFP and CMV-SB13 Sleeping Beauty transposase (1:5 ratio) were mixed in sterile saline solution. A total volume of plasmid-saline solution mix corresponding to 10% of the body weight was injected into the lateral tail vein of 6- to 8-week old female FVB/N mice (Jackson Laboratory, Me., USA) within 5-7 seconds. […] Tumors were evaluated using fluorescence imaging (IVIS imaging system, Xenogen Corp., Hopkinton, Mass.) and immunohistochemistry (H&E). Tumor volume was measured using a caliper.

[5] = Nanoparticle formation with indocyanine IR783 by nano-precipitation (DLS / visual precipitation)

## CC1(C)C(=CC=C2CCCC(C=CC3=[N+](CCCCS(=O)(=O)[O-])c4ccccc4C3(C)C)=C2Cl)N(CCCCS(=O)(=O)[O-])c2ccccc21.[Na+] [IR783, 2-[2-[2-Chloro-3-[2-[1,3-dihydro-3,3-dimethyl-1-(4-sulfobutyl)-2H-indol-2-ylidene]-ethylidene]-1-cyclohexen-1-yl]-ethenyl]-3,3-dimethyl-1-(4-sulfobutyl)-3H-indolium hydroxide, inner salt sodium salt]
[1]; listed as free indocyanine
  accumulation in liver tumors: did not accumulate in tumors
[1]
  accumulation in liver tumors: does not accumulate
[2]
  effect on cells after NIR irradiation: no significant effect
[3]
  uptake (internalization) in cell lines: does not internalize in the cells

## CNC(=O)c1cc(Oc2ccc(NC(=O)Nc3ccc(Cl)c(C(F)(F)F)c3)cc2)ccn1 [Sorafenib]
[4]
  anti-tumor efficacy in liver tumor model: multiple liver tumors

## Cc1onc(-c2ccccc2)c1-c1ccc(S(N)(=O)=O)cc1 [Valdecoxib]
[5]
  formation of nanoparticles with indocyanine: did not
